Laboratory results: BindingDB's records for doi:10.1021/acsmedchemlett.0c00008 (Taisho Pharmaceutical, 2020)

What was measured:
[1] = Inhibition of Human respiratory syncytial virus A2 Fusion protein expressed in Hep2 cells assessed as reduction in virus-induced cytopathic effect after 4 days by XTT assay
[2] = Inhibition of Human respiratory syncytial virus Fusion protein D486N mutant expressed in Hep2 cells assessed as reduction in virus-induced cytopathic effect after 4 days by XTT assay

In the case of `CC[C@@H](c1cc2nc(N3CC[C@H](N)C3)c(C)cn2n1)N(C)C(=O)c1cc(C)ccc1OC`, the EC50 [1] is reported as 3.8 nM and the EC50 [2] is reported as greater than 1000 nM.

`CC[C@H]1c2cc3nc(N4CC[C@H](N)C4)cc(n3n2)N(C)CCCOc2ccc(C)cc2C(=O)N1C` showed an EC50 [1] of 17 nM and an EC50 [2] greater than 1000 nM.

For `CC[C@H]1c2cc3nc(N4CC[C@H](N)C4)cc(n3n2)N(C)CCCCOc2ccc(C)cc2C(=O)N1C`, the EC50 [1] was 0.66 nM and the EC50 [2] was 440 nM.

With `CC[C@H]1c2cc3nc(N4CC[C@H](N)C4)cc(n3n2)N(C)CCCCCOc2ccc(C)cc2C(=O)N1C` the EC50 [1] was 6.2 nM and the EC50 [2] was greater than 1000 nM.

`CC[C@H]1c2cc3nc(N4CC[C@H](N)C4)cc(n3n2)N(C)CCCCCCOc2ccc(C)cc2C(=O)N1C` showed an EC50 [1] of 54 nM and an EC50 [2] greater than 1000 nM.

`CC[C@H]1c2cc3nc(N4CC[C@H](N)C4)cc(n3n2)NCCCCOc2ccc(C)cc2C(=O)N1C` showed an EC50 [1] of 61 nM and an EC50 [2] greater than 1000 nM.

For `CC[C@H]1c2cc3nc(N4CC[C@H](N)C4)c(C)c(n3n2)NCCCCOc2ccc(C)cc2C(=O)N1C`, the EC50 [1] was 1.4 nM and the EC50 [2] was greater than 1000 nM.

`CC[C@H]1c2cc3nc(N4CC[C@H](N)C4)c(C)c(n3n2)N(C)CCCCOc2ccc(C)cc2C(=O)N1C` gave an EC50 [1] of 8.1 nM and an EC50 [2] greater than 1000 nM.

`Cc1ccc2c(c1)C(=O)N1CCCC[C@H]1c1cc3nc(N4CC[C@H](N)C4)cc(n3n1)N(C)CCCCO2` showed an EC50 [1] of 2 nM and an EC50 [2] of 8.1 nM.
